Measured values published in US20220339214A1, “KIRIN FRUIT FERMENTATION AND METHODS FOR IMPROVING METABOLISM BY USING THE SAME” (TCI CO., LTD., priority 2021, published 2022).

Assays:
[1] = system: mouse myoblasts C2C12; assay: Activity of mitochondria in skeletal muscle cells affected by active substances (fluorescence picture); format: cell-based; conditions: 100 nM, 24 h, compared with blank group
Procedure: The experimental medium was removed from the culture plate, and the culture plate was washed with 1 mL of 1×PBS for two times. […] was added into each well to react for 5 min in the dark. After the reaction was completed, a cell medium was added to stop the reaction. The cells and cell medium in each well were collected in a 1.5 mL centrifuge tube, and the centrifuge tube containing the cells and cell medium was centrifuged at 400×g for 5 min. After the centrifugation, a supernatant was removed. The cells were washed with 1×DPBS, and then the centrifuge tube containing the cells was centrifuged again at 400×g for 5 min. After the centrifugation again, a supernatant was removed from each centrifuge tube, and 100 μL of JC-1 dye was added into each centrifuge tube and left to stand for 15 min in the dark. After 15 min, each centrifuge tube was centrifuged at 400×g for 5 min. […] Finally, the fluorescence signal of the to-be-tested cell solution in each well was measured by the flow cytometry (excitation light: 488 nip and scattered light: 527 nm & 590 nm), and the membrane potential of mitochondria was calculated, to analyze the activity of mitochondria. […] Finally, a picture of the fluorescence signal of the to-be-tested cell solution was taken by a. camera to observe the activity of mitochondria.

[2] = system: mouse myoblasts C2C12; assay: Proliferation of skeletal muscle cells (Click-iT Plus EdU, flow cytometry); format: cell-based; conditions: 24 h
Text: Experimental cell strain: mouse myoblasts C2C12 (hereinafter referred to as C2C12 cells) of the C2C12 cell strain (ATCC CRL-1772™) purchased from the American Type Culture Collection (ATCC®).
Culture medium: Dulbecco's modified Eagle's medium, purchased from Gibco, US, Gat.11965-092. 10% of fetal bovine serum (FBS), purchased from Gibco, US, Gat.10437-028. 1% of antibiotic, purchased from Gibco, US, Gat.15240-062.
Reagents: 10×DPBS buffer (purchased from Gibco, Gat 14200-075), trypan blue dead cell dye (purchased from Lonza, Cat 17-942E), trypsin-EDTA (purchased from Gibco, Cat. 15400-054), and cell proliferation Click-iT™ Plus EdU kit (Invitrogen; Cat. C10632).
First, 1×10^5 cells were inoculated into each well of a 6-well culture plate to culture at 37° C. for 24 h. The cultured cells were divided into three groups: an experimental group, a blank group, and a control group.
Blank group: only a culture medium was added to culture at 37° C. for 24 h.
Control group: 10% of PBS was added to culture at 37° C. for 24 h, which was used as a positive control group. […]
Next, the specific reagent EdU from the cell proliferation kit was added to culture for 2 h. […] Finally, the fluorescence signal of the to-be-tested cell solution in each well was measured by the flow cytometry (under 488 nm of excitation light and 530/30 nm of scattered light), and the quantity of cells was calculated. […]

Structure (SMILES): O[C@H]1[C@H](O)[C@@H](O)[C@H](O)[C@@H](O)[C@H]1O [TCI-GHU-01, myo-inositol]
- activity of mitochondria in skeletal muscle cells (small light spots around the nuclei) [1]: higher than that of the blank group
- increase of quantity of skeletal muscle cells ([2]; 100 nM, vs blank group): 48.2%
- quantity of skeletal muscle cells relative to the blank group ([2]; TCI-GHU-01 100 nM, positive control 10%, blank group regarded as 100%): 148.2%
